ChEMBL document CHEMBL3352774 (J Nat Prod, 2014)

Tests used:
[1] = molecular target: Xanthine dehydrogenase/oxidase (Bos taurus, UniProt P80457); assay: Inhibition of bovine milk xanthine oxidoreductase by spectrophotometry
[2] = molecular target: T1, Xanthine dehydrogenase (Rhodobacter capsulatus, UniProt O54050); assay: Inhibition of Rhodobacter capsulatus xanthine dehydrogenase
T1 sequence (O54050 whole entry): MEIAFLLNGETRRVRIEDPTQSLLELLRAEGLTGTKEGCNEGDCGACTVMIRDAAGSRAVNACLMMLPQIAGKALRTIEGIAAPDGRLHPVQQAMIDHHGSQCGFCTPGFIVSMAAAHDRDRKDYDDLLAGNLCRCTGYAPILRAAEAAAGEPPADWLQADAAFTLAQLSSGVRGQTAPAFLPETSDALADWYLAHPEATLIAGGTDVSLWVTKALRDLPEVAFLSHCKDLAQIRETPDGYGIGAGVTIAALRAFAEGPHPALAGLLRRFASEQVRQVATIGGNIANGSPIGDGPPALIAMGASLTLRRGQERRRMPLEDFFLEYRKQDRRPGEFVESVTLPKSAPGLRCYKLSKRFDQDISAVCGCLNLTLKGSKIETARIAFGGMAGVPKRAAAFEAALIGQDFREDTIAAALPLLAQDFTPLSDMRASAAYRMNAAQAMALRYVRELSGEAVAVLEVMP

[3] = molecular target: T2, Xanthine dehydrogenase/oxidase (Homo sapiens, UniProt P47989); assay: Inhibition of human xanthine oxidase
[4] = molecular target: T2, Xanthine dehydrogenase/oxidase; assay: Inhibition of oxidized form of human xanthine oxidase

Chain of Xanthine dehydrogenase/oxidase (Bos taurus, UniProt P80457) (P80457 whole entry): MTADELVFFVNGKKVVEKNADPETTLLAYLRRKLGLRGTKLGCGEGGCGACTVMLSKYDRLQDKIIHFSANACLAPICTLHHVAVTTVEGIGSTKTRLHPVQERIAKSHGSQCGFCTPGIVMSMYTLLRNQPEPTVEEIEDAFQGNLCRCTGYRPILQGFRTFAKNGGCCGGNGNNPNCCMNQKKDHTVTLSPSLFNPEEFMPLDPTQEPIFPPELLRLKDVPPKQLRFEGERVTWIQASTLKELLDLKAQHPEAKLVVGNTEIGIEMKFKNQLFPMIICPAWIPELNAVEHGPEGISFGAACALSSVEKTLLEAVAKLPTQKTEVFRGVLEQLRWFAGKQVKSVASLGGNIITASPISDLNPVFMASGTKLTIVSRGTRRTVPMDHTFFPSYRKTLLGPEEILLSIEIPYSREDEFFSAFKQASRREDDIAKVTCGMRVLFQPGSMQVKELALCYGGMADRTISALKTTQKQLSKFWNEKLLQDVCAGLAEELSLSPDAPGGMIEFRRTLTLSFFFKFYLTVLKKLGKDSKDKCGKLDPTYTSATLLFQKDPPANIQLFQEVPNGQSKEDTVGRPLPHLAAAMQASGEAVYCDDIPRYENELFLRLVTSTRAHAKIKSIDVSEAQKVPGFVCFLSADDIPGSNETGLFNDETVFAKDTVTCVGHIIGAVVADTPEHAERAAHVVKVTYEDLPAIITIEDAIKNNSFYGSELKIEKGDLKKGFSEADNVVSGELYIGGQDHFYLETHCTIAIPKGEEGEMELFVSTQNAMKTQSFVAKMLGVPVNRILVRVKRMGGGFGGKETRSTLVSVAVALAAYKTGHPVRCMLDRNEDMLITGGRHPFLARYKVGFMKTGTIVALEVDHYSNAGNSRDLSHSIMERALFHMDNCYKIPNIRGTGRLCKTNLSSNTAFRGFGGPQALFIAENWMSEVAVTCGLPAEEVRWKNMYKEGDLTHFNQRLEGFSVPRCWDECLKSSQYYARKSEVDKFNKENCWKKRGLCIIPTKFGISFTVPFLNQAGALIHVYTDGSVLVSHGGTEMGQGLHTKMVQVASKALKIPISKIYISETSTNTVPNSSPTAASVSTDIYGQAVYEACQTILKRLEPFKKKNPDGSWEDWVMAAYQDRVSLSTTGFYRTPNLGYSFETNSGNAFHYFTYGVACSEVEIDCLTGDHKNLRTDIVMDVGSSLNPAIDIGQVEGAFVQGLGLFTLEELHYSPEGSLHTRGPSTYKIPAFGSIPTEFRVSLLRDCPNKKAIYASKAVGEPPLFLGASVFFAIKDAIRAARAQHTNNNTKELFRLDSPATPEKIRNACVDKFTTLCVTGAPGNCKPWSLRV
T2 sequence (P47989 whole entry): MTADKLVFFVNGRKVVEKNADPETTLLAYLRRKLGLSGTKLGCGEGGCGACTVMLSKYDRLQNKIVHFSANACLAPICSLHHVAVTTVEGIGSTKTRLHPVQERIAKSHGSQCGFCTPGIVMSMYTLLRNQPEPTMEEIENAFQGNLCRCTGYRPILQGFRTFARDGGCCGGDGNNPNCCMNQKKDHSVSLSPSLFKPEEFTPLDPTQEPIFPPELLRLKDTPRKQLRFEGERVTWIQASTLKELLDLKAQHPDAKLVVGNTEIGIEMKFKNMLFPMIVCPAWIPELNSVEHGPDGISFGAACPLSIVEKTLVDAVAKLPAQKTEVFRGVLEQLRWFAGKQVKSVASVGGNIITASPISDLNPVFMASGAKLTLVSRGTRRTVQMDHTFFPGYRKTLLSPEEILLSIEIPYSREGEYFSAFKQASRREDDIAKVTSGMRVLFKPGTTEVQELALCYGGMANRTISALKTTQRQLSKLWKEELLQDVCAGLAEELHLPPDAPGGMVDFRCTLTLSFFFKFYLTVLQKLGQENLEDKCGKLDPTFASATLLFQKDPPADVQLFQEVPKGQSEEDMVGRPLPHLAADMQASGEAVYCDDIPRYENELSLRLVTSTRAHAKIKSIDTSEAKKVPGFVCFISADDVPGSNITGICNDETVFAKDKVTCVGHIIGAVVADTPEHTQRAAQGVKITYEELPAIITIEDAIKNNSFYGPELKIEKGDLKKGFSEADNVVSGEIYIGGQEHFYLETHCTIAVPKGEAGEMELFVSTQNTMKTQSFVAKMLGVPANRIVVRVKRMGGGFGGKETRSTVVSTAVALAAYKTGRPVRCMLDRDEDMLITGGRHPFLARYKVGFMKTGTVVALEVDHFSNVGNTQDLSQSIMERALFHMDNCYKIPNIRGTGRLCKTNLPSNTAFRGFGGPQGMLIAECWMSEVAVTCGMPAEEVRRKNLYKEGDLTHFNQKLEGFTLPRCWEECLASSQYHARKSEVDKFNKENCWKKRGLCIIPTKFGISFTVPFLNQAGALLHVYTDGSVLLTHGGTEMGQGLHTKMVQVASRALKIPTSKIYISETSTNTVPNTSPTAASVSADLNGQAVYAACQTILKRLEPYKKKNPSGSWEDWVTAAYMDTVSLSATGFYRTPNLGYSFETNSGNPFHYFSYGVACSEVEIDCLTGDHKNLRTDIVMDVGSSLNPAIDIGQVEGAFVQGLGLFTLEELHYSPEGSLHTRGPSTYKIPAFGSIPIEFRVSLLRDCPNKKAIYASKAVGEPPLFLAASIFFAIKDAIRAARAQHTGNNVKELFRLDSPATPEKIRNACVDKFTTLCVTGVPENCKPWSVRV

Compound: Nc1nc2ncc(C=O)nc2c(=O)[nH]1
- Ki [1]: 1.78 nM
- Ki [2]: 104 nM

Compound: O=c1[nH]c(=O)c2c[nH]nc2[nH]1 [OXYPURINOL]
- Ki [3]: 35 nM
- Ki [4]: 1000 nM

Compound: O=c1c(O)c(-c2ccc(O)c(O)c2)oc2cc(O)cc(O)c12 [QUERCETIN]
- inhibition (INH) ([1]; cattle): Active
